Measured values reported in US12286424B2, “Small molecule inhibitors of galectin-3” (BRISTOL-MYERS SQUIBB COMPANY, priority 2020, dated 2025).

Target: T1, hGalectin-3 (Homo sapiens, UniProt P17931)
T1 construct: made in house
Assay: Gal-3 ELISA assay (hGalectin-3 neutralization binding to asialofetuin)
Conditions: biotin-tagged hGalectin-3 15 nM, ASF-coated plate; read-out: hGal3 IC50

T1 sequence (P17931 whole entry): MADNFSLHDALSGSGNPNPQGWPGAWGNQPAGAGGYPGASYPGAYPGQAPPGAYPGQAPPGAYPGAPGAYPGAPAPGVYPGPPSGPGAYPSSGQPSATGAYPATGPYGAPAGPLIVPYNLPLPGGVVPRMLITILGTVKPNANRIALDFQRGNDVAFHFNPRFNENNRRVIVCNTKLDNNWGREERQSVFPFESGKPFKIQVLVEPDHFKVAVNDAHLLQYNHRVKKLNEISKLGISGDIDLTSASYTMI

| SMILES | IC50 [nM] |
| --- | --- |
| COc1ccc(N2C[C@@H]3C[C@H]2CN3C(=O)C[C@@H]2O[C@H](CO)[C@H](O)[C@H](n3cc(-c4cccc(F)c4)nn3)[C@H]2O)cc1 [Example 27, 2-((2S,3R,4R,5R,6R)-4-(4-(3-fluorophenyl)-1H-1,2,3-triazol-1-yl)-3,5-dihydroxy-6-(hydroxymethyl)tetrahydro-2H-pyran-2-yl)-1-((1S,4S)-5-(4-methoxyphenyl)-2,5-diazabicyclo[2.2.1]heptan-2-yl)ethanone] | 350 |
| O=C(C[C@@H]1O[C@H](CO)[C@H](O)[C@H](n2cc(-c3cccc(F)c3)nn2)[C@H]1O)N1C[C@@H]2C[C@H]1CN2c1ccc2c(c1)OCO2 [Example 28] | 580 |
| COc1ccc(N2C[C@@H]3C[C@H]2CN3C[C@@H]2O[C@H](CO)[C@H](O)[C@H](n3cc(-c4cccc(F)c4)nn3)[C@H]2O)cc1 [Example 29, (2R,3R,4R,5R,6S)-4-(4-(3-fluorophenyl)-1H-1,2,3-triazol-1-yl)-2-(hydroxymethyl)-6-(((1S,4S)-5-(4-methoxyphenyl)-2,5-diazabicyclo[2.2.1]heptan-2-yl)methyl)tetrahydro-2H-pyran-3,5-diol] | 250 |
| O=C([C@@H]1O[C@H](CO)[C@H](O)[C@H](n2cc(-c3cccc(F)c3)nn2)[C@H]1O)N1CCCN(c2ccc(O)cc2)CC1 [Example 33, ((2R, 3R, 4S, 5R, 6R)-4-(4-(3-fluorophenyl)-1H-1,2,3-triazol-1-yl)-3,5-dihydroxy-6-(hydroxymethyl)tetrahydro-2H-pyran-2-yl)(4-(4-hydroxyphenyl)-1,4-diazepan-1-yl)methanone] | 480 |
| CS(=O)(=O)Nc1ccc(N2C[C@@H]3C[C@H]2CN3C(=O)[C@@H]2O[C@H](CO)[C@H](O)[C@H](n3cc(-c4cccc(F)c4)nn3)[C@H]2O)nc1 [Example 41, N-(6-((1S,4S)-5-((2R,3R,4S,5R,6R)-4-(4-(3-fluorophenyl)-1H-1,2,3-triazol-1-yl)-3,5-dihydroxy-6-(hydroxymethyl)tetrahydro-2H-pyran-2-carbonyl)-2,5-diazabicyclo[2.2.1]heptan-2-yl)pyridin-3-yl)methanesulfonamide] | 720 |
| CS(=O)(=O)Nc1ccc(N2C[C@@H]3C[C@H]2CN3C(=O)[C@@H]2O[C@H](CO)[C@H](O)[C@H](n3cc(-c4cccc(F)c4)nn3)[C@H]2O)cn1 [Example 42] | 420 |

The remaining lines, values ahead:

| IC50 [nM] | SMILES |
| --- | --- |
| 300 | O=C([C@@H]1O[C@H](CO)[C@H](O)[C@H](n2cc(-c3cccc(F)c3)nn2)[C@H]1O)N1C[C@@H]2C[C@H]1CN2c1ccc2[nH]ccc2c1 [Example 26, ((1S,4S)-5-(1H-indol-5-yl)-2,5-diazabicyclo[2.2.1]heptan-2-yl)((2R,3R,4S,5R,6R)-4-(4-(3-fluorophenyl)-1H-1,2,3-triazol-1-yl)-3,5-dihydroxy-6-(hydroxymethyl)tetrahydro-2H-pyran-2-yl)methanone] |
| 500 | O=C(Nc1ccc(O)cc1)N1C[C@@H]2C[C@H]1CN2C(=O)[C@@H]1O[C@H](CO)[C@H](O)[C@H](n2cc(-c3cccc(F)c3)nn2)[C@H]1O [Example 30, (1S, 4S)-5-((2R, 3R, 4S, 5R, 6R)-4-(4-(3-fluorophenyl)-1H-1,2,3-triazol-1-yl)-3,5-dihydroxy-6-(hydroxymethyl)tetrahydro-2H-pyran-2-carbonyl)-N-(4-hydroxyphenyl)-2,5-diazabicyclo[2.2.1]heptane-2-carboxamide] |
| 180 | O=C([C@@H]1O[C@H](CO)[C@H](O)[C@H](n2cc(-c3cccc(F)c3)nn2)[C@H]1O)N1C[C@H]2C[C@@H]1CN2c1ccc2c(c1)OCO2 [Example 32] |
| 400 | Cc1ccc(N2C[C@H]3CN(C(=O)[C@@H]4O[C@H](CO)[C@H](O)[C@H](n5cc(-c6cccc(F)c6)nn5)[C@H]4O)C[C@H]3C2)cc1 [Example 38, ((2R,3R,4S,5R,6R)-4-(4-(3-fluorophenyl)-1H-1,2,3-triazol-1-yl)-3,5-dihydroxy-6-(hydroxymethyl)tetrahydro-2H-pyran-2-yl)((3aR,6aS)-5-(p-tolyl)hexahydropyrrolo[3,4-c]pyrrol-2(1H)-yl)methanone] |
